We go through four compounds from PubChem BioAssay (NCI).

Molecules are shown by their SMILES.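 48-hour exposure; five concentrations; linearly interpolated endpoints. TGI: concentration producing complete growth inhibition.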

Some test systems named below: OVCAR-4 ovarian; SW-620 colon; DMS 114 small cell lung; KM12 colon; SNB-75 CNS; KM20L2 colon; UACC-62 melanoma; NCI-H226 lung; NCI-H522 lung; TK-10 renal; SF-295 CNS; SR leukemia; RPMI-8226 leukemia; PC-3 prostate; HL-60(TB) leukemia; HT29 colon; UACC-257 melanoma; U251 CNS; BT-549 breast; NCI-H23 lung.
Holding throughout (assay): NCI-60 cell line screen, 48 h

Take `COc1ccc2c(c1)c1cc(OC)ccc1n2CCCCOc1ccc(-c2c3ccccc3c(-c3ccc(OCCCCn4c5ccc(OC)cc5c5cc(OC)ccc54)cc3)c3ccccc23)cc1`: the TGI in the test on OVCAR-4 ovarian, in the test with SW-620 colon, in the test on DMS 114 small cell lung, with KM12 colon, in the test on SNB-75 CNS and in the test on KM20L2 colon was above 100 µM each time. For the same compound, the TGI in the test with UACC-62 melanoma, with NCI-H226 lung, in the test on NCI-H522 lung and with TK-10 renal was above 100 µM each time.
As to `COc1ccc(NC2=NCCO2)c2ccccc12`, the TGI with SF-295 CNS, with SR leukemia, with RPMI-8226 leukemia, in the test with PC-3 prostate, in the test on HL-60(TB) leukemia and in the test with OVCAR-4 ovarian was above 10 µM throughout. Besides, the TGI in the test with SW-620 colon, in the test with HT29 colon, with KM12 colon, with SNB-75 CNS, with UACC-62 melanoma and in the test with NCI-H226 lung was above 10 µM throughout. Besides, the TGI in the test with NCI-H522 lung and in the test with TK-10 renal was above 10 µM each time.
For `N#Cc1c(C#N)c(SSc2c(C#N)c(C#N)c(N)n2-c2ccccc2)n(-c2ccccc2)c1N`, the TGI in the test with SF-295 CNS is above 58.6 µM; with UACC-257 melanoma, above 69.8 µM; in the test on PC-3 prostate, 46.1 µM; with U251 CNS it was 42.4 µM; with SW-620 colon, 3.43 µM; in the test on HT29 colon, above 59.1 µM. Also, the TGI in the test on BT-549 breast was 30.7 µM; in the test on KM12 colon, above 63.3 µM; in the test on NCI-H23 lung, above 61 µM; with SNB-75 CNS, above 70 µM; with UACC-62 melanoma it was 46.4 µM; in the test with NCI-H226 lung, 54.3 µM. In addition, the figures for the TGI in the test with NCI-H522 lung and with TK-10 renal were above 100 µM and 3.29 µM, respectively.
As to `O/N=C\c1cc(O)c(O)c(/C=N/O)c1`, the TGI in the test on SF-295 CNS, in the test on SR leukemia, with UACC-257 melanoma, in the test on RPMI-8226 leukemia, in the test with PC-3 prostate and in the test with HL-60(TB) leukemia was above 100 µM throughout. For the same compound, the TGI with U251 CNS, with OVCAR-4 ovarian, in the test on SW-620 colon, with HT29 colon, with BT-549 breast and in the test with KM12 colon was above 100 µM each time. Also, the TGI in the test on NCI-H23 lung was above 100 µM; in the test with SNB-75 CNS, above 100 µM; with UACC-62 melanoma, above 100 µM; in the test with NCI-H226 lung, 78.6 µM; in the test on NCI-H522 lung, 71.9 µM; in the test on TK-10 renal, above 100 µM.
